From ChEMBL document CHEMBL3758137 (Eur J Med Chem, 2016)

Columns and labels:
[1] = molecular target: Insulin-like growth factor 1 receptor (Homo sapiens, UniProt P08069); assay: Inhibition of recombinant human IGF1R using poly (Glu,Tyr)4:1 as substrate after 60 mins by ELISA
[2] = molecular target: Hepatocyte growth factor receptor (Homo sapiens, UniProt P08581); assay: Inhibition of recombinant c-Met (unknown origin) using poly (Glu,Tyr)4:1 as substrate after 60 mins by ELISA
[3] = Solubility of compound in HBSS/HEPES buffer at pH 7.4 by nephelometric analysis in presence of 0.1% BSA; format: physicochemical; conditions: HBSS/HEPES buffer with 0.1% BSA
Liver microsome = assay: Intrinsic clearance in rat liver microsomes at 0.1 uM after 7 to 60 mins by LC-MS/MS analysis; format: ADME
[4] = Apparent permeability from basolateral to apical side in human Caco2 cells after 35 to 95 mins by LC-MS/MS analysis; format: ADME, cell-based; conditions: Caco-2
[5] = Apparent permeability from apical to basolateral side in human Caco2 cells after 35 to 95 mins by LC-MS/MS analysis; format: ADME, cell-based; conditions: Caco-2
[6] = Antitumor activity against human EBC1 cells xenografted in nude mouse assessed as tumor growth inhibition at 40 mg/kg, po qd administered for 21 days relative control; format: functional; conditions: EBC-1, po, 504 h, read-out: TGI
[7] = molecular target: Vascular endothelial growth factor receptor 1 (Homo sapiens, UniProt P17948); assay: Inhibition of recombinant human Flt-1 using poly (Glu,Tyr)4:1 as substrate after 60 mins by ELISA
Sequence of Vascular endothelial growth factor receptor 1 (P17948 whole entry): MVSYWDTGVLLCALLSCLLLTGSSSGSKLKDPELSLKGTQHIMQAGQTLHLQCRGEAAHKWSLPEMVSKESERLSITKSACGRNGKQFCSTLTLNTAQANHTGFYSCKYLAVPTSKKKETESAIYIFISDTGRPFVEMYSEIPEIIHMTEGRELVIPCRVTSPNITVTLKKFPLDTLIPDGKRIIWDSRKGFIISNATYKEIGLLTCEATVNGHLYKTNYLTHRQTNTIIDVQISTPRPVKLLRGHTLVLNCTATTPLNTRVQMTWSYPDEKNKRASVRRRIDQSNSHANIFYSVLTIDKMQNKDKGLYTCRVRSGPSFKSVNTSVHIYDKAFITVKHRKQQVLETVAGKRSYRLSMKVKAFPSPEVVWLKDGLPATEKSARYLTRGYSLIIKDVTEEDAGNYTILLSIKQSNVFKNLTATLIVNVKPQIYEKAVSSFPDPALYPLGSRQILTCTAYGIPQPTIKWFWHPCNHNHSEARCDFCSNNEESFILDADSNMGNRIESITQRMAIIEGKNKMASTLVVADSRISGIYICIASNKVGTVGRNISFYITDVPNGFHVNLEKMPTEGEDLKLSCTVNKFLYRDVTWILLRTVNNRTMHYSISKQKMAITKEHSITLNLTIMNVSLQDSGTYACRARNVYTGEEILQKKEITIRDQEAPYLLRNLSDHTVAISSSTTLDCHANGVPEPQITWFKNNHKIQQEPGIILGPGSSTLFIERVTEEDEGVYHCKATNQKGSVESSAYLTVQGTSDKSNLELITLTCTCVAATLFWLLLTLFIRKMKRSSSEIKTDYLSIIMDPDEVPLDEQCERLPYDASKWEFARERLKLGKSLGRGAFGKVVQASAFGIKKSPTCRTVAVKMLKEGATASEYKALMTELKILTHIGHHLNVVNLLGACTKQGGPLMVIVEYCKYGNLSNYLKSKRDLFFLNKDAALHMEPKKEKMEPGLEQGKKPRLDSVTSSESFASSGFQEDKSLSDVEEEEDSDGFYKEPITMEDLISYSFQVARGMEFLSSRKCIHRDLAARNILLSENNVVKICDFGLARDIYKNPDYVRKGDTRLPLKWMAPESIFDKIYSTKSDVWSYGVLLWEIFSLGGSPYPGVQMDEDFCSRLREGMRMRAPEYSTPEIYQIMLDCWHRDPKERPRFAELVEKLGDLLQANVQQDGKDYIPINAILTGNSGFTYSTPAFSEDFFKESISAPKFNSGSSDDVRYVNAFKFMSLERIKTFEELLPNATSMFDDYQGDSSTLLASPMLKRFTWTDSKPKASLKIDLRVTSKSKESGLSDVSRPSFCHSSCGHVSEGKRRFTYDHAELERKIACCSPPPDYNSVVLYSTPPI

Sequence of Hepatocyte growth factor receptor (P08581 whole entry): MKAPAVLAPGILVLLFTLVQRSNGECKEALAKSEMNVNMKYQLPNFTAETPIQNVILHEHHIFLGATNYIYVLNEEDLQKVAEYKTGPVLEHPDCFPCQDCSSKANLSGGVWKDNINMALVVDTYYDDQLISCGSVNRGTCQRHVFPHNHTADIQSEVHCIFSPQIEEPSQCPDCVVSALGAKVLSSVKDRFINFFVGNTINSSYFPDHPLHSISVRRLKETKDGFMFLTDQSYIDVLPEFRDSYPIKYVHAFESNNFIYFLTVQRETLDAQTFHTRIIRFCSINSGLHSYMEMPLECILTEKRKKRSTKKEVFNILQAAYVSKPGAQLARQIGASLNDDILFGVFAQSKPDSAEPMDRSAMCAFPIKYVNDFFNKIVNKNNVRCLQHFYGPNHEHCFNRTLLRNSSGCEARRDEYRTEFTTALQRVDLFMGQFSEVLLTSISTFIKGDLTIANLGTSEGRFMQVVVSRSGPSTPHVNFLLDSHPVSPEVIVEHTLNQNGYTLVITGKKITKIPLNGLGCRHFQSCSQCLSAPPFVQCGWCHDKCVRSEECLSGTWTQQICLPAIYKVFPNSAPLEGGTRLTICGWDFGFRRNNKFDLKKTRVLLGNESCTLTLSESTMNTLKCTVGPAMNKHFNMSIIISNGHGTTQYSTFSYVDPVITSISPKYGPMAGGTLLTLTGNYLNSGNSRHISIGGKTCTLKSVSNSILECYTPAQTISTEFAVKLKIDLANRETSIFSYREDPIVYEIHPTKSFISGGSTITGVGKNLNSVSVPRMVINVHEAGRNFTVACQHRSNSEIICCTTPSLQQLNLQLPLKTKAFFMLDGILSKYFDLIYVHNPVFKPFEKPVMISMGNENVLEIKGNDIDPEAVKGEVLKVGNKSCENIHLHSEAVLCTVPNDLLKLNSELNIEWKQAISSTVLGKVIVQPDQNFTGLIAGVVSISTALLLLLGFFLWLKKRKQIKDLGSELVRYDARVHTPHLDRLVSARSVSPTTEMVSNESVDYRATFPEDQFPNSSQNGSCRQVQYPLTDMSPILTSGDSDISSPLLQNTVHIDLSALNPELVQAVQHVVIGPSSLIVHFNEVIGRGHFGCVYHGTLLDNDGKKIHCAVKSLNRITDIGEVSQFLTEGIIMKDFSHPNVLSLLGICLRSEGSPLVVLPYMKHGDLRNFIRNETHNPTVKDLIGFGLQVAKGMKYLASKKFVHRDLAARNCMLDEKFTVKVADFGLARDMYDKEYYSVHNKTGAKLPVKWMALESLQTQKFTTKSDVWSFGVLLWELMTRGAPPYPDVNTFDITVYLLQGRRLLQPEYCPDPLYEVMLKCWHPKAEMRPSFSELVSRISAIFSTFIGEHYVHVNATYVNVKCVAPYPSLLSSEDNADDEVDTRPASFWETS
Sequence of Insulin-like growth factor 1 receptor (P08069 31-736 limits assumed): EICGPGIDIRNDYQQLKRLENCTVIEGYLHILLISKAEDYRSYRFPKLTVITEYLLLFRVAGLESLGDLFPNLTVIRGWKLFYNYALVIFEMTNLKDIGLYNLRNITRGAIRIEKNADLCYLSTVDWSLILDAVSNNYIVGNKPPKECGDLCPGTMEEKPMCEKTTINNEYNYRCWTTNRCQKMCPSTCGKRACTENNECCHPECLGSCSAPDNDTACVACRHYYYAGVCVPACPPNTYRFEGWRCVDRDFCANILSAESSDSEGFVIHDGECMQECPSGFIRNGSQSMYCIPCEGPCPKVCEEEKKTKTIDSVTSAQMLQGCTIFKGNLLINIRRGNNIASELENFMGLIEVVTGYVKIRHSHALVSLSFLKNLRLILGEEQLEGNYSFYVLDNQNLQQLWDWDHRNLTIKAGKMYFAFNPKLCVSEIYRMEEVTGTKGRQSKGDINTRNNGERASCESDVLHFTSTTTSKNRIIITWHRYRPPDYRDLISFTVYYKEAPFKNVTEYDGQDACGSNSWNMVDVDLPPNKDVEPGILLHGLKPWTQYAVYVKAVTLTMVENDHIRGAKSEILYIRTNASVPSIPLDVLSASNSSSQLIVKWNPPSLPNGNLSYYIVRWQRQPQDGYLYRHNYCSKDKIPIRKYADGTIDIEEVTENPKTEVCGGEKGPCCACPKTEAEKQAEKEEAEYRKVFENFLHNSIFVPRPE
Sequence of Insulin-like growth factor 1 receptor (P08069 741-1367 limits assumed): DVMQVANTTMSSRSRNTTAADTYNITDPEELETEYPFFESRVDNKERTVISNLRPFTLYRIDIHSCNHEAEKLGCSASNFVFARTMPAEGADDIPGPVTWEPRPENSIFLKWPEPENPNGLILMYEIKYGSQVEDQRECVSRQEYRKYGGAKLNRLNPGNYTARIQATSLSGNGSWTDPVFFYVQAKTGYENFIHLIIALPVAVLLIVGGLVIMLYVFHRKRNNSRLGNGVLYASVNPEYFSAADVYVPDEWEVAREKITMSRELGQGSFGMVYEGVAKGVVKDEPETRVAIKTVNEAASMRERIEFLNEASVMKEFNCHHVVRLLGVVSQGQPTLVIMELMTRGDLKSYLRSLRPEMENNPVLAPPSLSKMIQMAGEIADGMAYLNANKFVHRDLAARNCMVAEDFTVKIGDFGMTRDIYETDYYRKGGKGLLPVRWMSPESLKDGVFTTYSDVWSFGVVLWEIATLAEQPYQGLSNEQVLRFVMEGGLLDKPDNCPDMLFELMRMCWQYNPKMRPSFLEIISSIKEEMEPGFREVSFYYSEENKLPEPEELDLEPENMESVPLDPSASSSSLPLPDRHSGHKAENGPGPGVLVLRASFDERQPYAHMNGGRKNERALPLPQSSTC

- IC50 [1]: > 1000 nM
- IC50 [2]: 7.5 nM
- solubility kinetic [3]: 51 µM
- CLH (Liver microsome): 36 mL/min/g
- Papp B→A [4]: 22.8 ×10⁻⁶ cm/s
- Papp A→B [5]: 17 ×10⁻⁶ cm/s
- IC50 [7]: > 1000 nM
Structure (SMILES): Cn1cc(-c2cnc(Nc3cccc(Cn4nc(-c5cnn(C)c5)ccc4=O)c3)nc2)cn1
- inhibition in vivo at 40 mg/kg [6]: 68.6%
